Blank lines part the entries; values can stand above or below the molecule they belong to. Square brackets hold non-standard residues; d marks the D form. Peptide text beside a SMILES is read from it. * marks the point of attachment. Sta = CC(C)C[C@H](N)[C@@H](O)CC(=O)O; pNA = O=[N+]([O-])c1ccc(N*)cc1; AMC = Cc1cc(=O)oc2cc(N*)ccc12; Isovaleryl = CC(C)CC(=O)*
Tests used:
Format in all cases: biochemical
DPRP-1 [1] = target: T1, DPRP-1 (Homo sapiens, UniProt Q6V1X1); test: Inhibition of DPRP-1 by protease inhibitors (Ala-Pro-AMC fluorescence); settings: for Residual activity (% of control) DPRP-1: preincubated 30 min at room temperature, Ala-Pro-AMC 100 μM
T1 construct: DNA fragments encoding the full-length polypeptide DPRP-1 were amplified using PCR oligonucleotide primers; made in house; host or cells: PEAK or COS-1 cells, transient transfection
Experimental: (§1) The kinetic properties of recombinant DPRP-1 and DPRP-2 were determined in a continuous fluorimetric assay. Buffer, pH and temperature dependence optimization led to the following assay conditions: Enzyme assays were performed in 50 mM PBS, pH7.4 50 μl (50 μg/ml) of purified enzymes were mixed with 1 μl of different concentration of Ala-Pro-AMC (Enzyme Systems). Plates were then incubated at 37° C. for 30 min, and fluorescence was detected using a Wallac 1420 Fluorimeter with λex40355 and λem535.
(§2) The two purified proteases and DPPIV were preincubated with inhibitors at room temperature for 30 min. Substrate, Ala-Pro-AMC (100 μM), was then added, and the fluorescence intensity was recorded as 60 readings during a 60 min period.

DPRP-2 [2] = target: T2, DPRP-2 (Homo sapiens, UniProt Q86TI2); test: Inhibition of DPRP-2 by protease inhibitors (Ala-Pro-AMC fluorescence); settings: for Residual activity (% of control) DPRP-2: preincubated 30 min at room temperature, Ala-Pro-AMC 100 μM
T2 construct: DNA fragments encoding the full length polypeptide DPRP-2 were amplified using PCR oligonucleotide primers; made in house; host or cells: PEAK or COS-1 cells, transient transfection
Experimental: as §1, §2

DPPIV [3] = target: T3, DPPIV (Homo sapiens, UniProt P27487); test: Inhibition of DPPIV by protease inhibitors (Ala-Pro-AMC fluorescence); settings: for Residual activity (% of control) DPPIV: preincubated 30 min at room temperature, Ala-Pro-AMC 100 μM
Experimental: as §1, §2

DPRP-1 [4] = target: T1, DPRP-1; test: Substrate specificity, DPRP-1; settings: substrate 125 μM, 30-minute incubation with enzyme
Experimental: (§3) In addition to Ala-Pro-AMC, additional substrates tested also confirmed that DPRP-1 and DPRP-2 are dipeptidyl peptidases. The data were derived by determining the fluorescence change following a 30-minute incubation of the substrates (125 μM) with enzymes as a percentage of the fluorescence measured at Ala-Pro-AMC and Gly-Pro-AMC were the only good substrates among those tested.

DPRP-2 [5] = target: T2, DPRP-2; test: Substrate specificity, DPRP-2; settings: substrate 125 μM, 30-minute incubation with enzyme
Experimental: as §3

DPPIV [6] = target: T3, DPPIV; test: Substrate specificity, DPPIV; settings: substrate 125 μM, 30-minute incubation with enzyme
Experimental: as §3

DPRP-1 [7] = target: T1, DPRP-1; test: Continuous fluorimetric assay, kinetic properties of recombinant DPRP-1; settings: substrate Ala-Pro-AMC; 50 mM PBS, pH7.4, 37° C., 30 min
Experimental: as §1

DPRP-2 [8] = target: T2, DPRP-2; test: Continuous fluorimetric assay, kinetic properties of recombinant DPRP-2; settings: substrate Ala-Pro-AMC; 50 mM PBS, pH7.4, 37° C., 30 min
Experimental: as §1

[9] = protease inhibitor panel of Table 5

T1 sequence (Q6V1X1 17-898): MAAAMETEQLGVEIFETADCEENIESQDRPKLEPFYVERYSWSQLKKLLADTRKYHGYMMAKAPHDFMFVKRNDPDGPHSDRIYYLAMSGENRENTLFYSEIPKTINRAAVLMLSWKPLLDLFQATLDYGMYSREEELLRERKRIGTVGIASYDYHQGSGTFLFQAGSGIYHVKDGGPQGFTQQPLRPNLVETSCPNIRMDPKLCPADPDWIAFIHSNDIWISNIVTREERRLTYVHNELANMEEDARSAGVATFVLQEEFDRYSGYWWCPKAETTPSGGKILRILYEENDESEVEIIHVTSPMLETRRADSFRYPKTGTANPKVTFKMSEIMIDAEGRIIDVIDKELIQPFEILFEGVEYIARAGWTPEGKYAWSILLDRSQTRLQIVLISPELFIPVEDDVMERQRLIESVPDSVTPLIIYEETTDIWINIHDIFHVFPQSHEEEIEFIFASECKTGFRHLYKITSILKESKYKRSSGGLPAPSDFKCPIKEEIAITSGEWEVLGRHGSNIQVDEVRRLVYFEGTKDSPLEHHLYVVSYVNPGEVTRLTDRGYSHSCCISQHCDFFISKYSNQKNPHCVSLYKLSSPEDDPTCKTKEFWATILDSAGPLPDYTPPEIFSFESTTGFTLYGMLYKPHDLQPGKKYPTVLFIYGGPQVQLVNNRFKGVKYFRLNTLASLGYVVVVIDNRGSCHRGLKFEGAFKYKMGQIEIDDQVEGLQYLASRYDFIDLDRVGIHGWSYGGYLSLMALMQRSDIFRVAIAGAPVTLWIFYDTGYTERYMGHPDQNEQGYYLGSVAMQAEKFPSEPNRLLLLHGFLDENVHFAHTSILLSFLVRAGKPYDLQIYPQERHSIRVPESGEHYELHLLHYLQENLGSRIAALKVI
T3 sequence (P27487 whole entry): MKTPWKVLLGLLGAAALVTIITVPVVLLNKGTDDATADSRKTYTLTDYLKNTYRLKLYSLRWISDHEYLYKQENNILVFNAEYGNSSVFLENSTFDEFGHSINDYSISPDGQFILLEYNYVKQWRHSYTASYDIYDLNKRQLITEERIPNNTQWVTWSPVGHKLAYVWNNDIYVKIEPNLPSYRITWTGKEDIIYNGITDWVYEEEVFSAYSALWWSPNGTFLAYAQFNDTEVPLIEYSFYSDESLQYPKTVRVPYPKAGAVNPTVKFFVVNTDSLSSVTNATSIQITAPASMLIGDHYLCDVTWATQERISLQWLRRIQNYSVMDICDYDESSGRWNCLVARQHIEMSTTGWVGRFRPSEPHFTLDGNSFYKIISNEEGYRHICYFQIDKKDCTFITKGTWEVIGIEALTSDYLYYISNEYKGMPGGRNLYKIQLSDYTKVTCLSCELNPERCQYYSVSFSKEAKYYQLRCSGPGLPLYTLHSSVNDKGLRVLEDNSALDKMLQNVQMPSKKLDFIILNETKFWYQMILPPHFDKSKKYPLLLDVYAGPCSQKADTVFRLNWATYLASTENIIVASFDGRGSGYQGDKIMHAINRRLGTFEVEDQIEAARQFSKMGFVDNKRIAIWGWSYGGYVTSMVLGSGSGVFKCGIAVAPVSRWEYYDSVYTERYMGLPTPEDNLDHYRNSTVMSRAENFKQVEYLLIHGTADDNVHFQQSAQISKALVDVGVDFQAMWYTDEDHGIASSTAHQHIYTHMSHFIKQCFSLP
T2 sequence (Q86TI2 whole entry, the tested form may be a part): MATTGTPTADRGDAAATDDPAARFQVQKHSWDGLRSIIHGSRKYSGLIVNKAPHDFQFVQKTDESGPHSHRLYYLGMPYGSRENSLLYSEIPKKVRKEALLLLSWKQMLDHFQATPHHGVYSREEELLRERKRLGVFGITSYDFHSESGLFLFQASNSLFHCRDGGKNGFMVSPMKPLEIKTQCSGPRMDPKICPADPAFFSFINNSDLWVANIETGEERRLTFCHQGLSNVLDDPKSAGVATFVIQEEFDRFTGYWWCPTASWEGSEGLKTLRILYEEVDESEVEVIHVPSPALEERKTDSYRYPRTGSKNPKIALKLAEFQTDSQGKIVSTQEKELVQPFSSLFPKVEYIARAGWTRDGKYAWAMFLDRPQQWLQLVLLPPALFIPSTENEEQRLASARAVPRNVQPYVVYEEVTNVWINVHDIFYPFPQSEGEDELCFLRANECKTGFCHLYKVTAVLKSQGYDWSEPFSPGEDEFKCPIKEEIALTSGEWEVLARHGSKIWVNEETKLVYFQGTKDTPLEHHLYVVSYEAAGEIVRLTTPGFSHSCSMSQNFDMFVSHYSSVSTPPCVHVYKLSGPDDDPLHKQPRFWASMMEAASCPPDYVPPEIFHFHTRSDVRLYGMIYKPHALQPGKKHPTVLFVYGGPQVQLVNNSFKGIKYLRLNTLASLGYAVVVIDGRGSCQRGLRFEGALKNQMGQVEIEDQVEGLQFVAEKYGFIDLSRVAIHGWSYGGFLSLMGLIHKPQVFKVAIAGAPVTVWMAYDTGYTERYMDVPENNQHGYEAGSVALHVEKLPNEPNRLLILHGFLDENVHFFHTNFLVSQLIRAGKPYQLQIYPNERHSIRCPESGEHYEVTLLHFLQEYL

Molecule: NCCc1ccc(S(=O)(=O)F)cc1 [AEBSF]
Residual activity (% of control) DPRP-1 (DPRP-1 [1]; inhibitor 5 mM): 29.6 % of control
Inhibition of DPRP-1 (in words) (DPRP-1 [1]; [9]): strong inhibition
Residual activity (% of control) DPRP-2 (DPRP-2 [2]; inhibitor 5 mM): 23.9 % of control
Inhibition of DPRP-2 (in words) (DPRP-2 [2]; [9]): strong inhibition
Residual activity (% of control) DPPIV (DPPIV [3]; inhibitor 5 mM): 21.1 % of control
Inhibition of DPPIV (in words) (DPPIV [3]; [9]): strong inhibition

Molecule: NCC(=O)N[C@@H](CCCN=C(N)N)C(=O)Nc1ccc([N+](=O)[O-])cc1 [Gly-Arg-pNA] (H-Gly-Arg-pNA)
% Change in Fluorescence at 30 minutes DPRP-1 (DPRP-1 [4]): −4.5%
% Change in Fluorescence at 30 minutes DPRP-2 (DPRP-2 [5]): −0.5%
% Change in Fluorescence at 30 minutes DPPIV (DPPIV [6]): 0.0%

Molecule: CC(=O)N[C@@H](CC(C)C)C(=O)N[C@@H](CC(C)C)C(=O)N[C@H](C=O)CCCNC(=N)N [Leupeptin]
Residual activity (% of control) DPRP-1 (DPRP-1 [1]; inhibitor 50 μg/ml): 91.1 % of control
Residual activity (% of control) DPRP-2 (DPRP-2 [2]; inhibitor 50 μg/ml): 90.4 % of control
Residual activity (% of control) DPPIV (DPPIV [3]; inhibitor 50 μg/ml): 90.7 % of control

Molecule: OCCS [B-Mercaptoethonal]
Residual activity (% of control) DPRP-1 (DPRP-1 [1]; inhibitor 100 mM): 93.2 % of control
Residual activity (% of control) DPRP-2 (DPRP-2 [2]; inhibitor 100 mM): 84.0 % of control
Residual activity (% of control) DPPIV (DPPIV [3]; inhibitor 100 mM): 98.0 % of control

Molecule: Aprotinin
Residual activity (% of control) DPRP-1 (DPRP-1 [1]; inhibitor 5 μg/ml): 77.5 % of control
Residual activity (% of control) DPRP-2 (DPRP-2 [2]; inhibitor 5 μg/ml): 63.2 % of control
Residual activity (% of control) DPPIV (DPPIV [3]; inhibitor 5 μg/ml): 80.2 % of control

Molecule: O[C@@H](CS)[C@@H](O)CS [DTT]
Residual activity (% of control) DPRP-1 (DPRP-1 [1]; inhibitor 2 mM): 100.1 % of control
Residual activity (% of control) DPRP-2 (DPRP-2 [2]; inhibitor 2 mM): 94.8 % of control
Residual activity (% of control) DPPIV (DPPIV [3]; inhibitor 2 mM): 98.3 % of control

Molecule: C[C@H](N)C(=O)N1CCC[C@H]1C(=O)Nc1ccc([N+](=O)[O-])cc1 [Ala-Pro-pNA] (H-Ala-Pro-pNA)
% Change in Fluorescence at 30 minutes DPRP-1 (DPRP-1 [4]): 45.5%
% Change in Fluorescence at 30 minutes DPRP-2 (DPRP-2 [5]): 44.0%
% Change in Fluorescence at 30 minutes DPPIV (DPPIV [6]): 29.5%

Molecule: C[C@H](N)C(=O)N[C@@H](Cc1ccccc1)C(=O)N1CCC[C@H]1C(=O)Nc1ccc([N+](=O)[O-])cc1 [Ala-Phe-Pro-pNA] (H-Ala-Phe-Pro-pNA)
% Change in Fluorescence at 30 minutes DPRP-1 (DPRP-1 [4]): −4%
% Change in Fluorescence at 30 minutes DPRP-2 (DPRP-2 [5]): −0.5%
% Change in Fluorescence at 30 minutes DPPIV (DPPIV [6]): 2.0%

Molecule: O=C(O)CN(CCN(CC(=O)O)CC(=O)O)CC(=O)O [EDTA]
Residual activity (% of control) DPRP-1 (DPRP-1 [1]; inhibitor 2 mM): 91.5 % of control
Residual activity (% of control) DPRP-2 (DPRP-2 [2]; inhibitor 2 mM): 86.0 % of control
Residual activity (% of control) DPPIV (DPPIV [3]; inhibitor 2 mM): 93.5 % of control

Molecule: Cc1cc(=O)oc2cc(NC(=O)[C@@H]3CCCN3C(=O)[C@H](C)N)ccc12 [Ala-Pro-AMC] (H-Ala-Pro-{AMC})
% Change in Fluorescence at 30 minutes DPRP-1 (DPRP-1 [4]): 239.0%
Km (DPRP-1 [7]): 208 µM
Km (DPRP-2 [8]): 161 µM
% Change in Fluorescence at 30 minutes DPRP-2 (DPRP-2 [5]): 127.5%
% Change in Fluorescence at 30 minutes DPPIV (DPPIV [6]): 379.0%

The remaining lines, values ahead:

% Change in Fluorescence at 30 minutes DPRP-1 (DPRP-1 [4]): 2.5%
% Change in Fluorescence at 30 minutes DPRP-2 (DPRP-2 [5]): 0.5%
% Change in Fluorescence at 30 minutes DPPIV (DPPIV [6]): 0.5%
Molecule: C[C@H](NC(=O)[C@@H](N)CCCCN)C(=O)Nc1ccc([N+](=O)[O-])cc1 [Lys-Ala-pNA] (H-Lys-Ala-pNA)

% Change in Fluorescence at 30 minutes DPRP-1 (DPRP-1 [4]): 341.5%
% Change in Fluorescence at 30 minutes DPRP-2 (DPRP-2 [5]): 205.0%
% Change in Fluorescence at 30 minutes DPPIV (DPPIV [6]): 444.0%
Molecule: Cc1cc(=O)oc2cc(NC(=O)[C@@H]3CCCN3C(=O)CN)ccc12 [Gly-Pro-AMC] (H-Gly-Pro-{AMC})

Residual activity (% of control) DPRP-1 (DPRP-1 [1]; inhibitor 2 μg/ml): 97.3 % of control
Residual activity (% of control) DPRP-2 (DPRP-2 [2]; inhibitor 2 μg/ml): 95.0 % of control
Residual activity (% of control) DPPIV (DPPIV [3]; inhibitor 2 μg/ml): 93.5 % of control
Molecule: CC(C)CC(=O)N[C@H](C(=O)N[C@H](C(=O)N[C@@H](CC(C)C)[C@@H](O)CC(=O)N[C@@H](C)C(=O)N[C@@H](CC(C)C)[C@@H](O)CC(=O)O)C(C)C)C(C)C [Pepstatin] (Isovaleryl-VV[Sta]A[Sta]-OH)

% Change in Fluorescence at 30 minutes DPRP-1 (DPRP-1 [4]): −1%
% Change in Fluorescence at 30 minutes DPRP-2 (DPRP-2 [5]): −2.5%
% Change in Fluorescence at 30 minutes DPPIV (DPPIV [6]): 0.0%
Molecule: O=C(Nc1ccc([N+](=O)[O-])cc1)[C@@H]1CCCN1 [Pro-pNA]

Source: patent publication US7157241B2, “Serine protease genes related to DPPIV” (Ferring BV, priority 2000, dated 2007)
